Measurements from patent publication US20230065799A1, “METHOD FOR ATTRIBUTING OLFACTORY TONALITIES TO OLFACTORY RECEPTOR ACTIVATION AND METHODS FOR IDENTIFYING COMPOUNDS HAVING THE ATTRIBUTED TONALITIES” (FIRMENICH SA, priority 2019, published 2023).

What was measured:
OR5AU1 = molecular target: T1, OR5AU1 (Homo sapiens, UniProt Q8NGC0); test: OR5AU1 cell-based cAMP HTRF assay; conditions: for Emax: read-out: OR5AU1 % Efficacy; for Active OR/Linked Tonality: OR5AU1 (Lactonic Coconut): receptor listed = activated by the compound
T1 construct: Lucy (cleavable signal peptide) (N); FLAG (N); Rho (first 20 aa of bovine rhodopsin) (N); expressed in transfected cells
T1 sequence (Q8NGC0 52-362): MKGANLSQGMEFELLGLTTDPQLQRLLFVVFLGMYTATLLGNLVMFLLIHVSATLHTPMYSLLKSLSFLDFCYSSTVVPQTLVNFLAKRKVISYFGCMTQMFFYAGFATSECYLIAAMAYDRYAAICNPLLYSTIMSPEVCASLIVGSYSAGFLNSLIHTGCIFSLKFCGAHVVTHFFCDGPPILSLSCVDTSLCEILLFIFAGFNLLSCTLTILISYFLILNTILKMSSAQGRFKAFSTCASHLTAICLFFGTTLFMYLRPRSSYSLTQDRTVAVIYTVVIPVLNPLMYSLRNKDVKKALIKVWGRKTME

OR11A1 = molecular target: T2, OR11A1 (Homo sapiens, UniProt Q9GZK7); test: OR11A1 cell-based cAMP HTRF assay in HEK293T cells; conditions: for Emax: HEK-293T, read-out: OR11A1 % Efficacy; for Emax / OR11A1 % Efficacy: dose-response, 100% = full agonist
T2 construct: FLAG (N); Rho (first 20 aa of bovine rhodopsin) (N); expressed in transfected cells
T2 sequence (Q9GZK7 1-315): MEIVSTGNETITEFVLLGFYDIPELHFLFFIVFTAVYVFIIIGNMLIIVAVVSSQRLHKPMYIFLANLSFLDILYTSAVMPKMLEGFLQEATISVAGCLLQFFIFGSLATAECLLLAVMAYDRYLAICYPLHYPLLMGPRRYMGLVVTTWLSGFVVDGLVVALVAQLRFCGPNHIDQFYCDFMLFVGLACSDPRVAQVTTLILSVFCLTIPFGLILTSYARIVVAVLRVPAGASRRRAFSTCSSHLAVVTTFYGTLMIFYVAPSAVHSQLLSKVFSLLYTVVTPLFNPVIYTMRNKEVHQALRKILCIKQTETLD
Procedure: The molecular receptive range of the human odorant receptor OR11A1 (SEQ ID NO. 11) was tested by performing a large scale screening with a chemically and organoleptically diverse volatile compound library comprising approximately 800 compounds. Using a cell-based assay, OR11A1 was tested in an HEK293T cell line wherein the endogenous RTP1 gene has been activated and the odorant receptor chaperone was expressed (WO2016/201153 A1). Cells were co-transfected with the Flag-Rho-tagged receptor and the canonical olfactory G-protein Golf, and exposed to a single concentration of each test compound, tested individually. Receptor activity was detected by measuring the cAMP increase in the cytosol using an HTRF (Homogenous Time-Resolved Fluorescence unit) based kit (CisBio, cAMP dynamic 2 kit, 62AM4PEJ).
First, 300 mM stock solutions for 798 test compounds were made in pure DMSO. The stock solutions for each compound were further diluted to a final test concentration of 300 μM. The final concentration of DMSO was 0.1%, and had no visible effect on the cells. Each compound was presented to a cell line expressing the OR11A1 olfactory receptor. The quality of this high-throughput screening (HTS) process was determined and the window variability and signal reliability were assessed by calculating the Z′ value of each plate (the average Z′ value per plate was 0.72±0.12, well within the required quality standards between 0.5 and 1). The result of this single concentration activation screen is shown in FIG. 3, where hits are highlighted in light grey dots.
In a subsequent step using the same cell-based assay described above, the candidate hits were confirmed to be true agonists (activators) by performing dose-response experiments as shown in FIG. 4 for a subset of the best hits. […] Both sensitivity (potency) and activation strength (efficacy) were calculated from the curves, as a measure of EC50 (the concentration required to reach half-maximal activation level) and Span (the assay window span between baseline activity level and activation saturation plateau), respectively. These values were used to represent the molecular receptive range of OR11A1 according to the potency (X axis) and efficacy (Y axis) in FIG. 5. A partial agonist, Tonalide, is also listed. The […] agonists cover distinct perfumery tonalities: woody (Patchouli Alcohol), musky (Vulcanolide, Tonalide), and camphorous (Fenchyl Alcohol), Table 2. Taken together, the data depict the diversity of both the organoleptic tonalities and chemical structures of compounds capable of activating OR11A1, congruent with results described in WO2016/201152 A1 (musk) and EP2832347A1.(patchouli). The OR11A1 activity however was not associated with the tonalities of musk (WO2016/201152 A1) or patchouli (EP2832347A1) specifically but rather the earthy facet thereof. In fact, the single commonality between these compounds was the earthy tonality, which is semantically captured by the following descriptors: earthy, humus and earthy-moss. These compounds are neither all musks nor patchouli but they all are earthy.

OR5A1 = molecular target: T3, OR5A1 (Homo sapiens, UniProt Q8NGJ0); test: OR5A1 cell-based cAMP HTRF assay; conditions: dose-response, 100% = full agonist; for Emax: read-out: OR5A1 % Efficacy
T3 construct: Lucy (cleavable signal peptide) (N); FLAG (N); Rho (first 20 aa of bovine rhodopsin) (N); expressed in transfected cells
T3 sequence (Q8NGJ0 1-315): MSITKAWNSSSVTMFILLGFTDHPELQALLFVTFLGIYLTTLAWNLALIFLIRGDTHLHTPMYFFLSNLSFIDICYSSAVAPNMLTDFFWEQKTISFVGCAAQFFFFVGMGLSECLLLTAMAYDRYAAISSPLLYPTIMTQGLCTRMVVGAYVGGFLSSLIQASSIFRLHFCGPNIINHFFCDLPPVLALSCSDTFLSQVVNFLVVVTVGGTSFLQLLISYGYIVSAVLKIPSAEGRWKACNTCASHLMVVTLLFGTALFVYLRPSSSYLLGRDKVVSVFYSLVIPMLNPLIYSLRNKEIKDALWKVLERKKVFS

OR8B3 = molecular target: T4, OR8B3 (Homo sapiens, UniProt Q8NGG8); test: OR8B3 cell-based cAMP HTRF assay; conditions: dose-response, 100% = full agonist; for Emax: read-out: OR8B3 % Efficacy
T4 construct: Lucy (cleavable signal peptide) (N); FLAG (N); Rho (first 20 aa of bovine rhodopsin) (N); expressed in transfected cells
T4 sequence (Q8NGG8 1-313): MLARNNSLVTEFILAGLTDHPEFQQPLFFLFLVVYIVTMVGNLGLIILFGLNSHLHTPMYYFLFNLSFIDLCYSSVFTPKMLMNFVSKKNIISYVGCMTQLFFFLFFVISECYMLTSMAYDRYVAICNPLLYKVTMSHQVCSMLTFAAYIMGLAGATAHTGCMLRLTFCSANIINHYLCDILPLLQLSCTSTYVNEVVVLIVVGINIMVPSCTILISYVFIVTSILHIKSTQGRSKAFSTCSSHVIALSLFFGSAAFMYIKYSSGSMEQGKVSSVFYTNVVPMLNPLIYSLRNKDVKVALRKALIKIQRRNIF

OR7A17 = molecular target: T5, OR7A17 (Homo sapiens, UniProt O14581); test: OR7A17 cell-based cAMP HTRF assay; conditions: dose-response, 100% = full agonist
T5 construct: Lucy (cleavable signal peptide) (N); FLAG (N); Rho (first 20 aa of bovine rhodopsin) (N); expressed in transfected cells
T5 sequence (O14581 1-309): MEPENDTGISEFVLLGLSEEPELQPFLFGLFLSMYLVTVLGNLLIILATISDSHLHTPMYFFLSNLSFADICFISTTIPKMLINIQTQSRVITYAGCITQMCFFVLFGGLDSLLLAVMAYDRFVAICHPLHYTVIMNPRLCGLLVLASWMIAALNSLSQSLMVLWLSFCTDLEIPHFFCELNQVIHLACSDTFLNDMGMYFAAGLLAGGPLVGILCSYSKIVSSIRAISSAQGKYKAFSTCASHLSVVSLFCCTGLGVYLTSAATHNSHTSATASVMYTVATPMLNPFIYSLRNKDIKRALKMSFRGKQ

[1] = dose-response, 100% = full agonist

CC=CCCC1CCCC(=O)O1 (centres unmarked) [Delta Jasmolactone, 6-pent-3-enyloxan-2-one]
Emax (OR5AU1; [1]): 92% | Active OR/Linked Tonality: OR5AU1 (Lactonic Coconut) (OR5AU1): OR5AU1/

CC12CCC(C1)C(C)(C)C2O (centres unmarked) [Fenchyl Alcohol, (1~{R},2~{R},4~{S})-1,3,3-trimethylbicyclo[2.2.1]heptan-2-ol]
Emax (OR11A1): 86%

CC(=O)C=CC1=C(C)CCC(C)C1(C)C (stereo not drawn) [Irone beta, 4-(2,5,6,6-tetramethylcyclohexen-1-yl)but-3-en-2-one]
Emax (OR5A1): 91%

CCCCCC1CCCC(=O)O1 (centres unmarked) [Delta decalactone, 6-pentyloxan-2-one]
Emax (OR5AU1; [1]): 88%

O=C1CCC2CCCCC2O1 (centres unmarked) [Octahydrocoumarine, 3,4,4~{a},5,6,7,8,8~{a}-octahydrochromen-2-one]
OR8B3 % Efficacy (OR8B3): 95%

4-(2,6,6-trimethylcyclohexen-1-yl)but-3-en-2-one; 4-(2,6,6-trimethylcyclohex-2-en-1-yl)but-3-en-2-one [Violette AT]
OR5A1 % Efficacy (OR5A1): 78%

1-(2,3,8,8-tetramethyl-1,3,4,6,7,8~{a}-hexahydronaphthalen-2-yl)ethanone; 1-(2,3,8,8-tetramethyl-1,3,5,6,7,8~{a}-hexahydronaphthalen-2-yl)ethanone; 1-(2,3,8,8-tetramethyl-1,3,4,5,6,7-hexahydronaphthalen-2-yl)ethanone [Derambrene]
OR7A17 % Efficacy (OR7A17): 83%

CC1(C)CCC[C@]2(C)CC(=O)CC[C@@H]12 [Z-95, (4~{a}~{S},8~{a}~{R})-5,5,8~{a}-trimethyl-3,4,4~{a},6,7,8-hexahydro-1~{H}-naphthalen-2-one]
OR7A17 % Efficacy (OR7A17): 82%

CC1(C)CCCC(C)(C)C1=O [2,2,6,6-tetramethyl-1-cyclohexanone]
OR11A1 agonism in dose-response experiments (OR11A1): did not yield any significant dose-response

CC(=O)c1cc2c(cc1C)C(C)(C)C(C)CC2(C)C (centres unmarked) [Tonalide, 1-(3,5,5,6,8,8-hexamethyl-6,7-dihydronaphthalen-2-yl)ethanone]
OR11A1 agonism in dose-response experiments (OR11A1): weak (partial) agonist | Emax (OR11A1): 21%

CCCCCCC1CCC(=O)O1 (centres unmarked) [Gamma Decalactone, 5-hexyloxolan-2-one]
Active OR/Linked Tonality: OR5AU1 (Lactonic Coconut) (OR5AU1): OR5AU1/

CCCCC1CCCC(=O)O1 (centres unmarked) [Nonalactone Delta, 6-butyloxan-2-one]
Active OR/Linked Tonality: OR5AU1 (Lactonic Coconut) (OR5AU1): OR5AU1/ | Emax (OR8B3): 97%

CC1CCCC2(C)CCCCC12O (centres unmarked) [Geosmin, (4~{S},8~{a}~{R})-4,8~{a}-dimethyl-1,2,3,4,5,6,7,8-octahydronaphthalen-4~{a}-ol]
Emax (OR11A1): 100%

C[C@@H]1CC[C@]2(O)C(C)(C)[C@H]3CC[C@@]2(C)[C@@H]1C3 [Patchouli Alcohol, (1~{S},3~{S},6~{R},7~{R},8~{S})-2,2,6,8-tetramethyltricyclo[5.3.1,0^{3,8}]undecan-3-ol]
OR11A1 % Efficacy (OR11A1): 83%

C[C@@H]1[C@@H]2C[C@H](C[C@]13C=CC(=O)CC3)C2(C)C [Wolfwood, (1~{S},2~{R},3~{R},5~{R})-2,6,6-trimethylspiro[bicyclo[3.1.1]heptane-3,4′-cyclohex-2-ene]-1′-one]
OR7A17 % Efficacy (OR7A17): 100%

CC(=O)/C(C)=C/C1C(C)=CCCC1(C)C (racemic) [Methyl ionone gamma, (+−)-(e)-3-methyl-4-(2,6,6-trimethyl-2-cyclohexen-1-yl)-3-buten-2-one]
Emax (OR7A17; read-out: OR7A17 % Efficacy): 65%

CCCCC1OC(=O)CC1C (centres unmarked) [Whiskey Lactone K, 5-butyl-4-methyloxolan-2-one]
Active OR/Linked Tonality: OR5AU1 (Lactonic Coconut) (OR5AU1): OR5AU1/ | Emax (OR8B3): 88%

CCCCC1CCC(=O)O1 (centres unmarked) [Gamma Octalactone, 5-butyloxolan-2-one]
Active OR/Linked Tonality: OR5AU1 (Lactonic Coconut) (OR5AU1): OR5AU1/ | Emax (OR8B3): 100%

CCCC1CCCC(=O)O1 (centres unmarked) [Octalactone Delta, 6-propyloxan-2-one]
Active OR/Linked Tonality: OR5AU1 (Lactonic Coconut) (OR5AU1): OR5AU1/

O=c1ccc2ccccc2o1 [Coumarin, chromen-2-one]
Emax (OR8B3): 95%

1-(4,8-dimethyl-12-methylidenecyclododeca-4,8-dien-1-yl)ethanone; 1-(2,6,10-trimethylcyclododeca-1,5,9-trien-1-yl)ethanone; 1-(2,6,10-trimethylcyclododeca-2,5,9-trien-1-yl)ethanone [Trimofix]
OR7A17 % Efficacy (OR7A17): 74%

CCC(=O)C=CC1=C(C)CCCC1(C)C [Methylionone beta, 1-(2,6,6-trimethylcyclohexen-1-yl)pent-1-en-3-one]
Emax (OR5A1): 82%

CCCCC[C@H]1OC(=O)C[C@H]1C [Tuberolide Ht, (4~{R},5~{R})-4-methyl-5-pentyloxolan-2-one]
OR5AU1 % Efficacy (OR5AU1; [1]): 100%

9-ethylidene-3-oxatricyclo[6.2.1.0^{2,7}]undecan-4-one; 10-ethylidene-3-oxatricyclo[6.2.1.0^{2,7}]undecan-4-one [Florex]
OR8B3 % Efficacy (OR8B3): 74%

CC1(C)[C@H]2C[C@H]3CCC(=O)C=C3[C@@H]1C2 [Tricyclone, (1~{R},7~{R},9~{S})-10,10-dimethyltricyclo[7.1.1.0^{2,7}]undec-2-en-4-one]
OR8B3 % Efficacy (OR8B3): 77%

CCCCCC1CCCC1=O (centres unmarked) [Delphone, 2-pentylcyclopentan-1-one]
Emax (OR5AU1; [1]): 80%

Cc1cc2c(cc1C=O)C(C)(C)[C@H](C)[C@@H](C)C2(C)C [Vulcanolide, (6~{R},7~{R})-3,5,5,6,7,8,8-heptamethyl-6,7-dihydronaphthalene-2-carbaldehyde]
OR11A1 % Efficacy (OR11A1): 89%
